Calls of active or inactive are those of the source.
Key:
[1] = biological target: T1, Sentrin-specific protease 7 (Homo sapiens, UniProt Q9BQF6); assay type: functional;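 also: Luminescence-based dose-response confirmation of ultra-high-throughput screening hits, measuring inhibition of SENP7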
T1 sequence (Q9BQF6 whole entry): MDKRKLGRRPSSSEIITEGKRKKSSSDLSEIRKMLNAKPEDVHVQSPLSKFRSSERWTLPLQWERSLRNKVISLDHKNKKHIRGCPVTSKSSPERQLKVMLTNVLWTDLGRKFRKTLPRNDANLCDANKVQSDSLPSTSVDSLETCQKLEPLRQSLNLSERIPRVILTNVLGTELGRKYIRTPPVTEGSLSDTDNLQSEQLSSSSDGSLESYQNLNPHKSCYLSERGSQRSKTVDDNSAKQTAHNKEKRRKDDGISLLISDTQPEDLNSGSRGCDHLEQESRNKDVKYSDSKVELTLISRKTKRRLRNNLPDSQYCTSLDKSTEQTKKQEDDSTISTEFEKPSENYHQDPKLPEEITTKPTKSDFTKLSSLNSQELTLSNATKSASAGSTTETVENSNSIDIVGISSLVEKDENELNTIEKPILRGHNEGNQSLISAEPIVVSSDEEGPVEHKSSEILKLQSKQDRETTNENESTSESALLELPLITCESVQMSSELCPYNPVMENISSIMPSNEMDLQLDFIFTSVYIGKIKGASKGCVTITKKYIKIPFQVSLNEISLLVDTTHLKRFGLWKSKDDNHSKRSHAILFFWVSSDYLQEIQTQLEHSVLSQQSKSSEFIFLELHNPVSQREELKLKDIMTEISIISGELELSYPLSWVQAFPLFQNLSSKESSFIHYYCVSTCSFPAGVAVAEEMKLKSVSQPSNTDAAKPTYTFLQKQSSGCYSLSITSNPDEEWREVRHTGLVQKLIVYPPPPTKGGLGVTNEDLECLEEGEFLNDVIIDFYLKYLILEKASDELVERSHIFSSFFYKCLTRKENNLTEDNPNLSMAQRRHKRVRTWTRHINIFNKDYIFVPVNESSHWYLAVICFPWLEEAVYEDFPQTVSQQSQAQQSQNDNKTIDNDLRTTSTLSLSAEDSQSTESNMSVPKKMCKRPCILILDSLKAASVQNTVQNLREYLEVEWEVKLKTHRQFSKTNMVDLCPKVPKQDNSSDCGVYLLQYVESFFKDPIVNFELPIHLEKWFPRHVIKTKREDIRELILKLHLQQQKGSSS

SUMO-activating enzyme = SUMO-activating enzyme (Homo sapiens, UniProt Q9UBT2); experiment: blockers of SAE1/SAE2–UBC9 SUMO transfer – biochemical, HTRF, uHTS, primary screen (AID 2006); assay type: protein-complex assay
[2] = biological target: Serine/threonine-protein phosphatase (Homo sapiens, UniProt Q9BPW0); experiment: inhibition of protein phosphatase 5 activity – biochemical, fluorescence, dose response (AID 2395)
Chain of Serine/threonine-protein phosphatase (Q9BPW0 whole entry): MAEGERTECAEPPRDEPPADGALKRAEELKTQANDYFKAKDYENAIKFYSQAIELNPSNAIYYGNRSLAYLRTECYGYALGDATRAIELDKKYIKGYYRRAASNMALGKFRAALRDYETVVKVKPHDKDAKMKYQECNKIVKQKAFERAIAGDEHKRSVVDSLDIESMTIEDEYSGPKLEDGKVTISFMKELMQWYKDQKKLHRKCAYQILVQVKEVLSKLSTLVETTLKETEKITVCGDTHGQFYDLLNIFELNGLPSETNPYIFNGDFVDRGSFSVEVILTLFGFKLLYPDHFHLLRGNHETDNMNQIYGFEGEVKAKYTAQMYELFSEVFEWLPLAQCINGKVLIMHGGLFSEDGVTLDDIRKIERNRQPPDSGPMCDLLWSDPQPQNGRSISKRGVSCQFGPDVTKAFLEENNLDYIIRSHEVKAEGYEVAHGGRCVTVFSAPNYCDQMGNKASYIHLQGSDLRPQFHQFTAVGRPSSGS

Caspase-6 = biological target: T2, Caspase-6 (Homo sapiens, UniProt P55212); experiment: inhibition of CASP6 peptide cleavage – biochemical, VEID-R110 fluorescence, cherry-pick, dose response (AID 720632)
T2 sequence (P55212 whole entry): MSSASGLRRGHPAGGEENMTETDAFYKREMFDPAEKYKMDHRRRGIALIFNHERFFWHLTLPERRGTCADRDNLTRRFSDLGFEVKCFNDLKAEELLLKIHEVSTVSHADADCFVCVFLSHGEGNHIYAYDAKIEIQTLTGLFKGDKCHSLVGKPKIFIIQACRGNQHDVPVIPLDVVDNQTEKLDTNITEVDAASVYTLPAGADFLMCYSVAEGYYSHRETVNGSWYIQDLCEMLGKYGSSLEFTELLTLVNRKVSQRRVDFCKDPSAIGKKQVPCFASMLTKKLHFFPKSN

BJ = experiment: BJ-TERT-LT-ST fibroblast viability loss – cell-based, RAS-independent, luminescence, dose response (AID 1935); assay type: functional; conditions: Homo sapiens;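 also: BJ fibroblasts immortalized with TERT plus LT and ST oncogenes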
Caspase-7 = biological target: T3, Caspase-7 (Homo sapiens, UniProt P55210); experiment: caspase-7 enzyme inhibition, selectivity check – biochemical, DEVD-R110 fluorescence, cherry-pick, selectivity assay for caspase-6 inhibitor project, dose response (AID 743295); assay type: functional
T3 sequence (P55210 whole entry): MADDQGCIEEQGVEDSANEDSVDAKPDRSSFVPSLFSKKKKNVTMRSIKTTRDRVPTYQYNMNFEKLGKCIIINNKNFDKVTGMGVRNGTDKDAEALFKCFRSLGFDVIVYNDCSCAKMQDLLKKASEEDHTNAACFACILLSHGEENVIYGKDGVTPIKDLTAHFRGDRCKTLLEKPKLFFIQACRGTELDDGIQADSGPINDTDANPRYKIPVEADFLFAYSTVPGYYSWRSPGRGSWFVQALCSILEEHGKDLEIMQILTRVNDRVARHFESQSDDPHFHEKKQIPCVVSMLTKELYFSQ

[3] = general cell-killing toxicity readout – plate reader, dry powder samples, cytotoxicity control for PAX8 inhibitor project, dose response (AID 743021); assay type: functional, cell-based
[4] = alpha-synuclein stem-loop luciferase translation blockers – H4 neuroglioma cells, luminescence, confirmation (AID 1988); assay type: functional, cell-based
[5] = Luminescence Cell-Based Dose Response HTS to Identify Inhibitors of 5'UTR Stem-Loop Driven Prion Protein mRNA Translation in H4 Neuroglioblastoma Cells. [Related pubchem assays: 1827 (Project Summary), 1813 (Primary HTS)]; assay type: functional
[6] = fluconazole-exposed Candida albicans growth modulators – fluorescence, retest, confirmation (AID 2467); assay type: functional, cell-based
[7] = biological target: Receptor tyrosine-protein kinase erbB-2 (Homo sapiens, UniProt P04626); experiment: Navigating the Kinome. Panel member name: ERBB2; assay type: functional
[8] = biological target: Casein kinase II subunit alpha (Homo sapiens, UniProt P68400); assay type: functional
Chain of Casein kinase II subunit alpha (P68400 whole entry): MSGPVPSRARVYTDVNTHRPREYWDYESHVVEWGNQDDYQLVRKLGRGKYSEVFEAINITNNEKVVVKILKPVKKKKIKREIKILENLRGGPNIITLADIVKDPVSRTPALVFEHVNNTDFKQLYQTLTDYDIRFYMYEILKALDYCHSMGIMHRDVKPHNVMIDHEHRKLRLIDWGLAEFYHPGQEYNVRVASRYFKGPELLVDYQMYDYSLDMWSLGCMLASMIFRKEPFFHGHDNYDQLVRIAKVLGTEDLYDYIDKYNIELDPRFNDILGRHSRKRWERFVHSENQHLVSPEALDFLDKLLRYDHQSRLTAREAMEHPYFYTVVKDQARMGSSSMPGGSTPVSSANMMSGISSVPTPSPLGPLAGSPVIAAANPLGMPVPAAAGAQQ

[9] = biological target: 3-phosphoinositide-dependent protein kinase 1 (Homo sapiens, UniProt O15530); assay type: functional;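 also: value comes from the Navigating the Kinome panel, PDPK1 member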
[10] = biological target: MAP kinase-activated protein kinase 3 (Homo sapiens, UniProt Q16644); assay type: functional;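 also: value comes from a kinome-wide profiling panel in which MAPKAPK3 is one of the panel members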
Chain of MAP kinase-activated protein kinase 3 (Q16644 whole entry): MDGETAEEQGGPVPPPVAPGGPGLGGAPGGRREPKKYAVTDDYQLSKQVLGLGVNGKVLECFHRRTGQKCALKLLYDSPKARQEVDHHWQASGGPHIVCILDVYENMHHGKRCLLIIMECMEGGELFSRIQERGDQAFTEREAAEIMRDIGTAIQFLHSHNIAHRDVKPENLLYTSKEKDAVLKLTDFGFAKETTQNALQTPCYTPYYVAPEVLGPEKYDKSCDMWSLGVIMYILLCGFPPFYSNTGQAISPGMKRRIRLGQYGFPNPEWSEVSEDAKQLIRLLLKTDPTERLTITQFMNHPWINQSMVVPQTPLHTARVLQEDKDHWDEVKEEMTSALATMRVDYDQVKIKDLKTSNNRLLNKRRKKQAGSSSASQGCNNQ

[11] = biological target: Mitogen-activated protein kinase 13 (Homo sapiens, UniProt O15264); assay type: functional
Chain of Mitogen-activated protein kinase 13 (O15264 whole entry): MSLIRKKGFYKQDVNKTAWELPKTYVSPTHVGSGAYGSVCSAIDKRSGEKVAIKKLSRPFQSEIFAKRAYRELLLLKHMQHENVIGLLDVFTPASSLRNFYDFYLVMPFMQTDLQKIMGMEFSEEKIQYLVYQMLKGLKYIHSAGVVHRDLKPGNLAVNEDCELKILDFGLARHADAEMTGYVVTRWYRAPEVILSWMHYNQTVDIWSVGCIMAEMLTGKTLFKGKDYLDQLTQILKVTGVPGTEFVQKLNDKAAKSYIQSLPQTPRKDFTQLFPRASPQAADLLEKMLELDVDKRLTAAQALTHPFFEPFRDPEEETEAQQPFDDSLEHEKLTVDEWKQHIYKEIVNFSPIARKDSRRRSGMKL

[12] = biological target: RAC-gamma serine/threonine-protein kinase (Homo sapiens, UniProt Q9Y243); assay type: functional
[13] = biological target: Serine/threonine-protein kinase PAK 1 (Homo sapiens, UniProt Q13153); assay type: functional
Chain of Serine/threonine-protein kinase PAK 1 (Q13153 whole entry): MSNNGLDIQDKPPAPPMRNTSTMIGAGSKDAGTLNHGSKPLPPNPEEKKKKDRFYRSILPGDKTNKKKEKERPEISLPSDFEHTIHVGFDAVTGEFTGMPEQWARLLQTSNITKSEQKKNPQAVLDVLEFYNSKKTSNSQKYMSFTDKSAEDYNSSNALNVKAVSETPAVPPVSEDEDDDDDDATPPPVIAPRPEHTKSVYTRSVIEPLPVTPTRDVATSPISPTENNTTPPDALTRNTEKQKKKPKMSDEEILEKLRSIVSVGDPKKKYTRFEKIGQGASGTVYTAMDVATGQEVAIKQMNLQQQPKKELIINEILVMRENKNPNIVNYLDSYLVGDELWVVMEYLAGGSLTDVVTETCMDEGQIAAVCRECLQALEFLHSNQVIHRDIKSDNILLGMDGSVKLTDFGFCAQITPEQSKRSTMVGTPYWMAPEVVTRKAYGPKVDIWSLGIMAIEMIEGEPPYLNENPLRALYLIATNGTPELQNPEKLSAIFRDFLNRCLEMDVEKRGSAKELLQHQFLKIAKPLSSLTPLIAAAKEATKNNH

[14] = biological target: Serine/threonine-protein kinase pim-1 (Homo sapiens, UniProt P11309); assay type: functional
Chain of Serine/threonine-protein kinase pim-1 (P11309 whole entry): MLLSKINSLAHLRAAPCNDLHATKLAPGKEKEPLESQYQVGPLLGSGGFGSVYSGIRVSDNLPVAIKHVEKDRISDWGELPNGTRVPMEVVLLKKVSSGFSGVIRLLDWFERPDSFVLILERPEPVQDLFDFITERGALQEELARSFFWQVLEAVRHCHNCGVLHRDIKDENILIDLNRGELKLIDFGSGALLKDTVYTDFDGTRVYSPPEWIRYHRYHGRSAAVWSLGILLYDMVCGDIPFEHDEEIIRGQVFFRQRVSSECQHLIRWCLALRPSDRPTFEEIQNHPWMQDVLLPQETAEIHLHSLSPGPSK

[15] = biological target: Tyrosine-protein kinase Lyn (Homo sapiens, UniProt P07948); assay type: functional;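 also: lyn as one member of a kinase panel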
[16] = biological target: Calcium/calmodulin-dependent protein kinase type 1 (Homo sapiens, UniProt Q14012); assay type: functional
Chain of Calcium/calmodulin-dependent protein kinase type 1 (Q14012 whole entry): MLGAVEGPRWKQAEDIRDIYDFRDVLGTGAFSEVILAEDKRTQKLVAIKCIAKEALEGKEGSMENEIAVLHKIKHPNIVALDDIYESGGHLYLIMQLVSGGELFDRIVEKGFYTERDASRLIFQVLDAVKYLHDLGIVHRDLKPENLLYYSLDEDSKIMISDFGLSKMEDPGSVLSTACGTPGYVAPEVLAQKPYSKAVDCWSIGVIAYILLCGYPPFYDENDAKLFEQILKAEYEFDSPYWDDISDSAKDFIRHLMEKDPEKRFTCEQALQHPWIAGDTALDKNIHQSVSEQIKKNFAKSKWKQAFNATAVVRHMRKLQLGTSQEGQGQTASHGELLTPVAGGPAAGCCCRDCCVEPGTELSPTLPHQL

[17] = biological target: Mitogen-activated protein kinase kinase kinase kinase 4 (Homo sapiens, UniProt O95819); assay type: functional
Chain of Mitogen-activated protein kinase kinase kinase kinase 4 (O95819 whole entry): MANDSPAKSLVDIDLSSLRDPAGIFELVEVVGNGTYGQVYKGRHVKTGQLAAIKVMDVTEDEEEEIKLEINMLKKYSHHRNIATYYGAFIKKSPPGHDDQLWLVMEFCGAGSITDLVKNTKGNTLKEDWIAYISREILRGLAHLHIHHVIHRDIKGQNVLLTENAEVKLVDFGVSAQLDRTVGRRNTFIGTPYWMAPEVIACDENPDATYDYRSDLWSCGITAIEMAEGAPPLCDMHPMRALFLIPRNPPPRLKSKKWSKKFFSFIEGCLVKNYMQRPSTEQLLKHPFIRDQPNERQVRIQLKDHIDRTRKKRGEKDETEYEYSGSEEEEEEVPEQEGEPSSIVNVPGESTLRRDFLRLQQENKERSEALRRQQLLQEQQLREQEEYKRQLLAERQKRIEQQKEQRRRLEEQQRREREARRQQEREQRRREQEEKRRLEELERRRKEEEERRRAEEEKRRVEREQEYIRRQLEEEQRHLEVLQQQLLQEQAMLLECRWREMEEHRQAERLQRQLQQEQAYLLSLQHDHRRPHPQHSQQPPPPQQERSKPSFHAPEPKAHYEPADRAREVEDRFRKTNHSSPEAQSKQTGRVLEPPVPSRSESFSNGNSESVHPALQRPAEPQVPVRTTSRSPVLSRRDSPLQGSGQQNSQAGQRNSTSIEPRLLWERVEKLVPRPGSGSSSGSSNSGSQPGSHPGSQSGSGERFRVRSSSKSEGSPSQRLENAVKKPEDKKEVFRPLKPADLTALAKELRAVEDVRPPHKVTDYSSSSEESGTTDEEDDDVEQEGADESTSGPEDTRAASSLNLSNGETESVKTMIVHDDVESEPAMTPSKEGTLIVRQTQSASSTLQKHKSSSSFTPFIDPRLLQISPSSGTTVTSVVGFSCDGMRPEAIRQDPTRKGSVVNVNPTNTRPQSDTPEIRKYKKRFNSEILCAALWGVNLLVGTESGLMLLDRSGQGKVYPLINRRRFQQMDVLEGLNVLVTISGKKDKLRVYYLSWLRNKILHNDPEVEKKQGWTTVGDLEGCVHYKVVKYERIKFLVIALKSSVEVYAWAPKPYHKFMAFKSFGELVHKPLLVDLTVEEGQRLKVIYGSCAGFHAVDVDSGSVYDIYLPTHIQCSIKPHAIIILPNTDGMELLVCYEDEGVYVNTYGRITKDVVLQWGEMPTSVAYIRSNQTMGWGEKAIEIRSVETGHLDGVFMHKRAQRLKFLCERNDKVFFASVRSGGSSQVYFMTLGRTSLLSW

[18] = biological target: Maternal embryonic leucine zipper kinase (Homo sapiens, UniProt Q14680); assay type: functional
Chain of Maternal embryonic leucine zipper kinase (Q14680 whole entry): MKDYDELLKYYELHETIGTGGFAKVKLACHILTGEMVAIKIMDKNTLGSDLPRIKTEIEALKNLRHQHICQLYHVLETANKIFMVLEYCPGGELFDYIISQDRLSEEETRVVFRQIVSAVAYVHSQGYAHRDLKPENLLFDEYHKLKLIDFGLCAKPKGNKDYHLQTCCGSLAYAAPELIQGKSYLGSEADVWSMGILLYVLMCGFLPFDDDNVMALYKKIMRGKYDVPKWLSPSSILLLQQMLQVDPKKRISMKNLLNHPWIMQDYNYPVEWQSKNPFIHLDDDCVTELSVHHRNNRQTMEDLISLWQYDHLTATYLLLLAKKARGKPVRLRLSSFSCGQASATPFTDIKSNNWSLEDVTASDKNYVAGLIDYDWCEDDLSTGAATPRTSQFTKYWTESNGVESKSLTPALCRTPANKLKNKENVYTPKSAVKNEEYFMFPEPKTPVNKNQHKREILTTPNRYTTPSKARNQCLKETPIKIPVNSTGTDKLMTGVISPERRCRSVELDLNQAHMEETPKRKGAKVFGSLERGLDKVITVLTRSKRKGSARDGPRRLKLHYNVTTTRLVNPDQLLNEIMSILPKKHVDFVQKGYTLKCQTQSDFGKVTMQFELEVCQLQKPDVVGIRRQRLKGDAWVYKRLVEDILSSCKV

## Cc1ccc(C(=O)NC2(O)C(=O)c3ccccc3C2=O)cc1C
[1]
  IC50: 4.4 µM (active)
SUMO-activating enzyme
  IC50: 5.71 µM (active)
[2]
  IC50: > 828 nM (active)

## O=[N+]([O-])c1c(Nc2ccccn2)cc(Cl)c2nonc12
Caspase-6
  AC50: 1.06 µM (active)
BJ
  EC50: 3.95 µM (inconclusive)
Caspase-7
  AC50: 20.3 µM (active)

## CC[C@@H](C)[C@H](CNC)NC[C@@H](Cc1cccc2ccccc12)NCCc1cccc(C(F)(F)F)c1
[3]
  AC50: 27.5 µM (active)
[4]
  EC50: 7.84 µM (active)
[5]
  EC50: > 120 µM (not active)
[6]
  EC50: > 38 µM (not active)

## CC(C)(CO)CNc1nccc(-c2c(-c3ccc(F)cc3)nc3c(CC4CC4)nccn23)n1
[7]
  Ki: > 1.58 µM (inactive)
[8]
  Ki: > 6.31 µM (inactive)
[9]
  Ki: > 3.98 µM (inactive)
[10]
  Ki: > 10 µM (inactive)
[11]
  Ki: > 7.94 µM (inactive)
[12]
  Ki: > 10 µM (inactive)
[13]
  Ki: > 10 µM (inactive)
[14]
  Ki: > 10 µM (inactive)
[15]
  Ki: > 1.58 µM (inactive)
[16]
  Ki: > 5.01 µM (inactive)
[17]
  Ki: 3.98 µM (active)
[18]
  Ki: > 1.58 µM (inactive)

— ChEMBL document CHEMBL1201862, “PubChem BioAssay data set” (2004)
